# Measured values reported in ChEMBL document CHEMBL4382283, “Discovery of a GPR40 Superagonist: The Impact of Aryl Propionic Acid α-Fluorination” (ACS Med Chem Lett, 2019).
# Activity calls are given as the source filed them. The calls are words filed in the database; no cut-off is given here.
# Tests used:
# [1] = biological target: T1, Free fatty acid receptor 1 (Homo sapiens, UniProt O14842); test: Agonist activity at human GPR40 expressed in CHOK1 cells assessed as induction of Galphaq-mediated IP1 accumulation after 90 mins HTRF assay; assay type: functional, cell-based
# T1 sequence (O14842 whole entry): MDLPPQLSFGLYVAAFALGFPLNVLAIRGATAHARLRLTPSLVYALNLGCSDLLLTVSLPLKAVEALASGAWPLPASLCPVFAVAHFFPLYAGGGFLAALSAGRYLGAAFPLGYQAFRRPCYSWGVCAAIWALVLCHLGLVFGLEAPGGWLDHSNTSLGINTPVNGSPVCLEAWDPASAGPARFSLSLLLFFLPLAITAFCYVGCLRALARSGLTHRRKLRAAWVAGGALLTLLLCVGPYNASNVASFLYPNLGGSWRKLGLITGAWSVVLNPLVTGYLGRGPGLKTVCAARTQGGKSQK
# [2] = biological target: Free fatty acid receptor 1 (Rattus norvegicus, UniProt Q8K3T4); test: Agonist activity at rat GPR40 expressed in HEK293 cells assessed as induction of intracellular calcium mobilization by Fluo-8 dye based FLIPR assay; assay type: functional, cell-based
# Free fatty acid receptor 1 (Rattus norvegicus, UniProt Q8K3T4), sequence (Q8K3T4 whole entry): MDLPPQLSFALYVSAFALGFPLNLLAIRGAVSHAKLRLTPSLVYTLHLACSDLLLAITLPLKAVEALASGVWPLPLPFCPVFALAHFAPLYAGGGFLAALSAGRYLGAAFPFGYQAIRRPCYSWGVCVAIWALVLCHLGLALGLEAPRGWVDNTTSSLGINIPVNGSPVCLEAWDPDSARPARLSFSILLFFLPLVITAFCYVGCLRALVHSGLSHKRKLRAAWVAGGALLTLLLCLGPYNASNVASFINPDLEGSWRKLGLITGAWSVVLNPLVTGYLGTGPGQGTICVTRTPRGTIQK
# [3] = biological target: T1, Free fatty acid receptor 1; test: Agonist activity at human GPR40 expressed in HEK293 cells assessed as induction of intracellular calcium mobilization by Fluo-8 dye based FLIPR assay; assay type: functional, cell-based
# Mus musculus [4] = test: Antiobesity activity in diet-induced obese C57BL/6J mouse assessed as body weight loss at 10 mg/kg, po once daily for 14 days measured on day 15 (reference value: 3.74 +/- 0.6%); assay type: functional
# [5] = Plasma concentration in diet-induced obese C57BL/6J mouse at 1 mg/kg, po once daily for 14 days measured 24 hrs post last dose; assay type: ADME, organism-based
# [6] = biological target: T1, Free fatty acid receptor 1
# Description: Displacement of [3H]AM-1638 from human GPR40 expressed in CHOK1 cells assessed as association half life after 60 mins by TopCount method
# Cytochrome P450 [7] = test: Inhibition of CYP450 in human liver microsomes at 10 uM after 0.5 hrs by LC-MS/MS analysis; assay type: ADME
# Mus musculus [8] = test: Antidiabetic activity in diet-induced obese mouse assessed as reduction in blood glucose excursion administered orally 45 mins prior to glucose challenge and measured up to 120 mins by OGTT; assay type: functional
# [9] = Oral bioavailability in Sprague-Dawley rat at 10 mg/kg by LC-MS/MS analysis; assay type: ADME, organism-based; details: in vivo
# [10] = biological target: Voltage-gated inwardly rectifying potassium channel KCNH2 (Homo sapiens, UniProt Q12809); test: Inhibition of human ERG
# Voltage-gated inwardly rectifying potassium channel KCNH2, sequence (Q12809 whole entry): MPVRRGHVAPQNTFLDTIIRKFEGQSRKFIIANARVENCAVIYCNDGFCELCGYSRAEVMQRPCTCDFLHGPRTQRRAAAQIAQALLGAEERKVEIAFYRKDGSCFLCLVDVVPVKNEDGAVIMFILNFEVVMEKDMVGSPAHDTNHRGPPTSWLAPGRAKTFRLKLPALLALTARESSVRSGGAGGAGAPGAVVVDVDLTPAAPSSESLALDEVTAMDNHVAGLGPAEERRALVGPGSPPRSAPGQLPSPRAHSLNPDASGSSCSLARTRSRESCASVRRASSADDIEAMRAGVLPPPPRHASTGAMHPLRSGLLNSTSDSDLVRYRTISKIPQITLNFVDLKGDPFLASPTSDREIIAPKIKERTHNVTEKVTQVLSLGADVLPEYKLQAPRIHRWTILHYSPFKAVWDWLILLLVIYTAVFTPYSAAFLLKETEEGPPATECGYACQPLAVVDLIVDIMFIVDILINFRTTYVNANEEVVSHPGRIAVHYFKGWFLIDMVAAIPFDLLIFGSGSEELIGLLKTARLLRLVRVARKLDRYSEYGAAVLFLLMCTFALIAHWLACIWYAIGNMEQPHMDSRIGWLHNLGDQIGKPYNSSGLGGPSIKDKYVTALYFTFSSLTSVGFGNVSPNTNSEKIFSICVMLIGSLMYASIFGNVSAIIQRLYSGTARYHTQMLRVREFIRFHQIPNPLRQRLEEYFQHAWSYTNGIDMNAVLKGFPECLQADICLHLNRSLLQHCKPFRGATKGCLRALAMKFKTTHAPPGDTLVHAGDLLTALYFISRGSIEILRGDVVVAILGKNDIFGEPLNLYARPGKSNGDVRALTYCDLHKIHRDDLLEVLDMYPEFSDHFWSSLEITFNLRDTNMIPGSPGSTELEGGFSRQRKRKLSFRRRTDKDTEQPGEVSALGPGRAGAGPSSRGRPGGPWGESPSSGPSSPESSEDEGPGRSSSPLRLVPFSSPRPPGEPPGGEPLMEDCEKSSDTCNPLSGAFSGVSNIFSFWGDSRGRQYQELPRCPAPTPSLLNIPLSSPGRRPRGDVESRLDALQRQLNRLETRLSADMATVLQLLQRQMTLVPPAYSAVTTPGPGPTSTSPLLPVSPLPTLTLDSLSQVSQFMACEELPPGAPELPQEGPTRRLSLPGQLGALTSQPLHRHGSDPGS
# [11] = Plasma concentration in diet-induced obese C57BL/6J mouse at 3 mg/kg, po once daily for 14 days measured 24 hrs post last dose; assay type: ADME, organism-based
# [12] = Plasma concentration in diet-induced obese mouse at 1 mg/kg, po; assay type: ADME, organism-based; details: in vivo
# [13] = Cmax in Sprague-Dawley rat at 10 mg/kg, po by LC-MS/MS analysis; assay type: ADME, organism-based; parameters: dose 10 mg/kg, route oral; details: in vivo
# [14] = biological target: T1, Free fatty acid receptor 1; remark: listed apart in the source
# Description: Displacement of [3H]AM-1638 from human GPR40 expressed in CHOK1 cells assessed as dissociation half life after 40 mins by TopCount method
# [15] = Metabolic stability in human hepatocytes assessed as parent compound remaining at 10 uM after 2 hr by LC-MS analysis; assay type: ADME, cell-based, Hepatocyte
# [16] = Volume of distribution at steady state in Sprague-Dawley rat at 10 mg/kg, po or 2 mg/kg, iv by LC-MS/MS analysis; assay type: ADME, organism-based; details: in vivo, read-out: Vdss
# [17] = Plasma concentration in diet-induced obese C57BL/6J mouse at 10 mg/kg, po once daily for 14 days measured 24 hrs post last dose; assay type: ADME, organism-based
# [18] = Plasma concentration in diet-induced obese mouse at 10 mg/kg, po; assay type: ADME, organism-based; details: in vivo
# [19] = Plasma concentration in diet-induced obese C57BL/6J mouse at 30 mg/kg, po once daily for 14 days measured 24 hrs post last dose; assay type: ADME, organism-based
# [20] = Genotoxicity in Salmonella typhi by Ames test; assay type: toxicity; details: salmonella enterica subsp. enterica serovar […]
# Mus musculus [21] = test: Antiobesity activity in diet-induced obese C57BL/6J mouse assessed as body weight loss at 0.3 mg/kg, po once daily for 14 days measured on day 15 (reference value: 3.74 +/- 0.6%); assay type: functional
# [22] = Plasma concentration in diet-induced obese C57BL/6J mouse at 0.3 mg/kg, po once daily for 14 days measured 24 hrs post last dose; assay type: ADME, organism-based
# [23] = biological target: T1, Free fatty acid receptor 1; test: Full agonist activity at human GPR40 expressed in CHOK1 cells assessed as induction of GalphaS-mediated cAMP accumulation after 30 mins HTRF assay; assay type: functional, cell-based
# Mus musculus [24] = test: Antiobesity activity in diet-induced obese C57BL/6J mouse assessed as body weight loss at 3 mg/kg, po once daily for 14 days measured on day 15 (reference value: 3.74 +/- 0.6%); assay type: functional
# [25] = Plasma concentration in diet-induced obese mouse at 0.1 mg/kg, po; assay type: ADME, organism-based; details: in vivo
# [26] = Clearance in Sprague-Dawley rat at 10 mg/kg, po or 2 mg/kg, iv by LC-MS/MS analysis; assay type: ADME, organism-based; details: in vivo
# [27] = biological target: T1, Free fatty acid receptor 1; test: Agonist activity at GPR40 in human islets assessed as induction of glucose-stimulated insulin secretion after 1 hr by HTRF assay
# [28] = Plasma concentration in diet-induced obese mouse at 3 mg/kg, po; assay type: ADME, organism-based; details: in vivo
# Mus musculus [29] = test: Antiobesity activity in diet-induced obese C57BL/6J mouse assessed as reduction in cumulative food intake administered orally once daily for 14 days; assay type: functional, organism-based
# Mus musculus [30] = test: Antiobesity activity in diet-induced obese C57BL/6J mouse assessed as body weight loss at 1 mg/kg, po once daily for 14 days measured on day 15 (reference value: 3.74 +/- 0.6%); assay type: functional
# [31] = Half life in Sprague-Dawley rat at 10 mg/kg, po by LC-MS/MS analysis; assay type: ADME, organism-based; details: in vivo
# [32] = Half life in Sprague-Dawley rat at 2 mg/kg, iv by LC-MS/MS analysis; assay type: ADME, organism-based; details: in vivo
# Cytochrome P450 [33] = test: Induction of CYP450 in human liver microsomes at 10 uM after 0.5 hrs by LC-MS/MS analysis; assay type: ADME
# [34] = biological target: T1, Free fatty acid receptor 1; test: Positive allosteric modulation of human GPR40 expressed in CHOK1 cells assessed as increase in [3H]-(S)-3-Cyclopropyl-3-(3-(((1r,4S)-4-(2-fluoro-5-methoxyphenyl)cyclohexyl)methoxy)phenyl)propanoic acid binding after 60 mins by TopCount method; assay type: cell-based
# Mus musculus [35] = test: Antiobesity activity in diet-induced obese C57BL/6J mouse assessed as body weight loss at 30 mg/kg, po once daily for 14 days measured on day 15 (reference value: 3.74 +/- 0.6%); assay type: functional
# [36] = Drug metabolism in human hepatocytes at 10 uM after 2 hr by LC-MS analysis; assay type: ADME, cell-based, Hepatocyte
# [37] = Plasma concentration in diet-induced obese mouse at 0.3 mg/kg, po; assay type: ADME, organism-based; details: in vivo
# Mus musculus [38] = test: Antiobesity activity in diet-induced obese C57BL/6J mouse assessed as body weight loss administered orally once daily for 14 days; assay type: functional, organism-based
# [39] = Plasma concentration in diet-induced obese mouse at 0.03 mg/kg, po; assay type: ADME, organism-based; details: in vivo
# [40] = Protein binding in human plasma at 10 uM after 6 hrs by equilibrium dialysis method; assay type: ADME, cell-free; details: read-out: PPB
# [41] = biological target: T1, Free fatty acid receptor 1; test: Agonist activity at GPR40 in human islets assessed as induction of glucose-stimulated insulin secretion at 10 uM after 1 hr by HTRF assay relative to (S)-3-Cyclopropyl-3-(3-(((1r,4S)-4-(2-fluoro-5-methoxyphenyl)cyclohexyl)methoxy)phenyl)propanoic acid
# [42] = biological target: T1, Free fatty acid receptor 1; test: Partial agonist activity at human GPR40 expressed in CHOK1 cells assessed as induction of GalphaS-mediated cAMP accumulation after 30 mins HTRF assay; assay type: functional, cell-based
# Mus musculus [43] = test: Antidiabetic activity in diet-induced obese mouse assessed as reduction in blood glucose excursion at 10 mg/kg, po administered 45 mins prior to glucose challenge and measured up to 120 mins by OGTT; assay type: functional, organism-based
# Rattus norvegicus [44] = test: In vivo agonist activity at GPR40 in ZDF rat assessed as increase in plasma total GLP1 level at 10 mg/kg daily for 38 days relative to control; assay type: functional
# Rattus norvegicus [45] = test: Antiobesity activity in ZDF rat assessed as reduction in food intake at 10 mg/kg daily for 38 days relative to control; assay type: functional; parameters: scale not given: the % may be the effect or the level left
# Rattus norvegicus [46] = test: Antiobesity activity in ZDF rat assessed as body weight loss at 10 mg/kg daily for 38 days relative to control; assay type: functional
smiles,measurement,setting,value
COc1ccc(F)c([C@H]2CC[C@H](COc3cccc([C@H](C4CC4)C(C)(C)C(=O)O)c3)CC2)c1,EC50,[1],220 nM
same,EC50,[2],0.31 nM
same,EC50,[3],0.11 nM
COc1ccc(F)c([C@H]2CC[C@H](COc3cccc([C@H](C4CC4)[C@@](C)(F)C(=O)O)c3)CC2)c1,Activity,Mus musculus [4],-10.07%
same,concentration at 24 h,[5],340 nM
same,T1/2,[6],3.3 min
same,EC50,[1],3.1 to 5.3 nM
same,inhibition (INH),Cytochrome P450 [7],Not Active
same,Activity,Mus musculus [8],Dose-dependent effect
same,minimal effective dose,"Mus musculus [8]; po, read-out: MED",3 mg/kg
same,bioavailability,[9],92.1%
same,inhibition (INH),[10],Not Active
same,concentration at 24 h,[11],1290 nM
same,concentration,[12],220 nM
same,Cmax,[13],495 ng/mL
same,T1/2,[14],0.333 h
same,Stability,[15],73%
same,Vd,[16],3.2 L/kg
same,concentration at 24 h,[17],7050 nM
same,concentration,[18],3830 nM
same,concentration at 24 h,[19],391000 nM
same,Activity,[20],Non-Toxic
same,Activity,Mus musculus [21],3.15%
same,EC50,[2],0.34 nM
same,concentration at 24 h,[22],100 nM
same,Activity,[23],Active
same,Activity,Mus musculus [24],-2.56%
same,concentration,[25],22 nM
same,clearance,[26],17 mL/min/kg
same,EC50,[27],3.7 nM
same,concentration,[28],870 nM
same,Activity,Mus musculus [29],Dose-dependent effect
same,Activity,Mus musculus [30],1.05%
same,half-life,[31],7.9 h
same,half-life,[32],4.3 h
same,Activity,Cytochrome P450 [33],Not Active
same,Activity,[34],Active
same,EC50,[3],0.25 nM
same,Activity,Mus musculus [35],-6.84%
same,Drug metabolism,[36],1%
same,concentration,[37],87 nM
same,Activity,Mus musculus [38],Dose-dependent effect
same,concentration,[39],7.4 nM
same,"fraction unbound at 6 h, 10 µM",[40],< 0.001
COc1ccc(F)c(-c2ccc(COc3cccc([C@@H](CC(=O)O)C4CC4)c3)cc2C2=CCCC2(C)C)c1,Activity,[1],Active
same,Activity,[23],Active
Cc1cc(OCCCS(C)(=O)=O)cc(C)c1-c1cccc(COc2ccc3c(c2)OC[C@H]3CC(=O)O)c1,EC50,[2],39 nM
same,Efficacy,[41],40%
COc1ccc(F)c([C@H]2CC[C@@H](COc3cccc([C@@H](CC(=O)O)C4CC4)c3)CC2)c1,Activity,[42],Active
COc1ccc(F)c([C@H]2CC[C@H](COc3cccc([C@@H](CC(=O)O)C4CC4)c3)CC2)c1,T1/2,[6],0.8 min
same,Activity,Mus musculus [43],Active
same,EC50,[1],199 nM
same,bioavailability,[9],91.4%
same,Cmax,[13],18200 ng/mL
same,T1/2,[14],0.00233 h
same,Stability,[15],56%
same,Vd,[16],0.2 L/kg
same,fold change (FC),Rattus norvegicus [44],6.2
same,concentration,[18],98700 nM
same,Activity,Rattus norvegicus [45],10%
same,EC50,[2],4.1 nM
same,Activity,[23],Active
same,Activity,Rattus norvegicus [46],6%
same,clearance,[26],0.4 mL/min/kg
same,EC50,[27],1370 nM
same,half-life,[31],9.1 h
same,half-life,[32],7.2 h
same,Activity,[34],Active
same,EC50,[3],0.94 nM
same,Drug metabolism,[36],4%
same,"fraction unbound at 6 h, 10 µM",[40],< 0.001
COc1ccc(F)c([C@H]2CC[C@H](COc3cccc([C@H](C4CC4)[C@H](C)C(=O)O)c3)CC2)c1,EC50,[1],2 nM
same,bioavailability,[9],45.5%
same,Cmax,[13],1360 ng/mL
same,Stability,[15],45%
same,Vd,[16],0.9 L/kg
same,clearance,[26],8.1 mL/min/kg
same,half-life,[31],4.4 h
same,half-life,[32],4.8 h
same,Drug metabolism,[36],5%
COc1ccc(F)c([C@H]2CC[C@H](COc3cccc([C@H](C4CC4)[C@](C)(F)C(=O)O)c3)CC2)c1,EC50,[1],89 nM
same,Activity,[23],Active
COc1ccc(F)c([C@H]2CC[C@H](COc3cccc([C@H](C4CC4)[C@@H](F)C(=O)O)c3)CC2)c1,EC50,[1],20 nM
same,bioavailability,[9],73.8%
same,Cmax,[13],3700 ng/mL
same,Stability,[15],63%
same,Vd,[16],0.9 L/kg
same,EC50,[2],28 nM
same,Activity,[23],Active
same,clearance,[26],2.7 mL/min/kg
same,half-life,[31],4.3 h
same,half-life,[32],4.7 h
same,EC50,[3],1.1 nM
same,Drug metabolism,[36],7%
COc1ccc(F)c([C@H]2CC[C@H](COc3cccc([C@H](C4CC4)[C@@H](C)C(=O)O)c3)CC2)c1,EC50,[1],22 nM
same,EC50,[2],4.9 nM
same,EC50,[3],2.2 nM
COc1ccc(F)c([C@H]2CC[C@H](COc3cccc([C@H](C4CC4)C(F)(F)C(=O)O)c3)CC2)c1,EC50,[2],34 nM
same,EC50,[3],16 nM
COc1ccc(F)c([C@H]2CC[C@H](COc3cccc([C@H](C4CC4)[C@H](F)C(=O)O)c3)CC2)c1,EC50,[2],163 nM
same,Activity,[23],Active
same,EC50,[3],54 nM
